Data published in patent US20260306500A1, “METHOD OF INHIBITING ADENOSINE TRIPHOSPHATE SECRETION, METHOD OF INHIBITING HEPATIC STELLATE CELL ACTIVATION, METHOD OF DEACTIVATING HEPATIC STELLATE CELL, METHOD OF TREATING HEPATIC FIBROSIS, METHOD OF TREATING NON-ALCOHOLIC STEATOHEPATITIS, AND METHOD OF TREATING PSORIASIS” (Kurume University, priority 2023, published 2026).
One block for each molecule: values may come before it.

Tests used:
V-ATPase [1] = biological target: T1, V-ATPase (Bos taurus, UniProt P31404+P31408); experiment: Transmembrane potential generated (oxonol-V fluorescence quenching) in chromaffin granules; assay type: biochemical, cattle; conditions: role: substrate; addition of ATP, relative to before addition, N=2
T1 construct: Chromaffin granule membranes were prepared from adrenal glands collected from slaughtered cattle; from tissue; host or cells: cattle adrenal glands, chromaffin granule membranes (sucrose density gradient)
T1 sequence (P31404 whole entry, looked up): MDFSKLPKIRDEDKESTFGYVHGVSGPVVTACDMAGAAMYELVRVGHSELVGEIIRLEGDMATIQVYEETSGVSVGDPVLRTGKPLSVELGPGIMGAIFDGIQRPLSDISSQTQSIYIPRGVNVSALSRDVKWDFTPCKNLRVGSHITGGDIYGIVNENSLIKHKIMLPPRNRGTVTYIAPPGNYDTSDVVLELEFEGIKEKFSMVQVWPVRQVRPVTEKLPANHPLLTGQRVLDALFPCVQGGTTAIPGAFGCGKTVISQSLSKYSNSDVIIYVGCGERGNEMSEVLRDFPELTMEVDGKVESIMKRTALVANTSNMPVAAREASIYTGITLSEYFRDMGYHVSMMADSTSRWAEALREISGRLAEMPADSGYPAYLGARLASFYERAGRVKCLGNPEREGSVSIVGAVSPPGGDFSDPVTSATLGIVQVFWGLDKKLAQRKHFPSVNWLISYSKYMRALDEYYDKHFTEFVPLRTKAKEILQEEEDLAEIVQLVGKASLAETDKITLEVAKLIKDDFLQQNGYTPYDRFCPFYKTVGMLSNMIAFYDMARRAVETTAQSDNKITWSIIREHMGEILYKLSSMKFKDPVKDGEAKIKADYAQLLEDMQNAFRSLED
T1 sequence (P31408 whole entry, looked up): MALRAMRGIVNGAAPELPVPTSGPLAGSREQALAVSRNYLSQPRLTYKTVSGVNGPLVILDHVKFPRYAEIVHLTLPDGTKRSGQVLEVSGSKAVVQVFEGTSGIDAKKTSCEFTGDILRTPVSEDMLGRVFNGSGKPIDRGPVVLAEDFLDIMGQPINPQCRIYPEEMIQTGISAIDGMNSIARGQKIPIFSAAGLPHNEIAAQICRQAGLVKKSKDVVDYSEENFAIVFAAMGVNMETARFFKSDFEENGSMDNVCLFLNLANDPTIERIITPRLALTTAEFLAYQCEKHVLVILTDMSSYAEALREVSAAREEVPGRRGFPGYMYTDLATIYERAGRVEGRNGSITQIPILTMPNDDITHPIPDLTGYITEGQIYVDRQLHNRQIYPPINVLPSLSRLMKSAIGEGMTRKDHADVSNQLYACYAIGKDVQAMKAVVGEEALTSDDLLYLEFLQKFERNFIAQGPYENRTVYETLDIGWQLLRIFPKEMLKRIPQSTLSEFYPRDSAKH
Experimental: (§1) Chromaffin granule membranes were prepared from adrenal glands collected from slaughtered cattle according to Reference A (Nathan Nelson et al., 1988, Chromaffin Granule Proton Pump, Methods in Enzymology, 157, 619-633). Chromaffin granule membranes prepared by sucrose density gradient centrifugation were suspended in 2 ml of SME buffer (20 mM MOPS-tris (pH 7.0), 0.3 M sucrose, 5 mM EDTA, 10 μg/ml leupeptin, and 10 μg/ml pepstatin)+25% glycerol, and the resulting suspension was aliquoted and stored at −80° C. Under these conditions, the ATP transport activity, the V-ATPase activity, and the catecholamine transport activity remain fully active for at least one year.
ATP-dependent proton transport by V-ATPase was measured according to Reference B. Proton transport activity was measured using a spectrofluorometer at excitation wavelength of 492 nm and a fluorescence wavelength 540 nm, wherein fluorescence quenching of acridine orange was used as an index (N=2). The transmembrane potential generated was measured using a spectrofluorometer at an excitation wavelength of 580 nm and a fluorescence wavelength of 630 nm, wherein fluorescence quenching of oxonol-V was used as an index (N=2). […]

V-ATPase [2] = biological target: T1, V-ATPase; experiment: ATP-dependent proton transport by V-ATPase (acridine orange fluorescence quenching); assay type: biochemical, cattle; conditions: role: substrate; addition of ATP, relative to before addition, N=2
Experimental: as §1
ATP-dependent proton transport by V-ATPase was measured according to Reference B. Proton transport activity was measured using a spectrofluorometer at excitation wavelength of 492 nm and a fluorescence wavelength 540 nm, wherein fluorescence quenching of acridine orange was used as an index (N=2). The transmembrane potential generated was measured using a spectrofluorometer at an excitation wavelength of 580 nm and a fluorescence wavelength of 630 nm, wherein fluorescence quenching of oxonol-V was used as an index (N=2). The acridine measurement liquid (2 ml) contained 20 mM MOPS-tris (pH 7.0), 0.2 M sucrose, 0.1 M potassium chloride, 5 mM magnesium acetate, 0.2 μg valinomycin, 2 μM acridine orange, and about 20 μg of chromaffin granules. The oxonol-V measurement liquid (2 ml) contained 20 mM MOPS-tris (pH 7.0), 0.3 M sucrose, 5 mM magnesium acetate, 5 μM oxonol-V, and about 20 μg of chromaffin granules.
(§2) Chromaffin granule membrane vesicles were prepared in the same manner as in Example 5, and uptake of radiolabeled ATP into the vesicles was measured. Transport activity of catecholamine (dopamine) and ATP-dependent proton transport by V-ATPase were also measured in the same manner as in Example 5.

mouse liver = experiment: Thioacetamide-induced hepatic fibrosis in mice: histology, immunostaining and fibrosis score; assay type: in vivo; conditions: TAA 50 mg/kg i.p. three times per week
Experimental: Wild-type mice, […] (manufactured by Charles River Japan), were housed on a 12-hour light/dark cycle and fed a standard solid diet (5.4% fat, CRF-1, manufactured by Oriental Yeast Co., Ltd.) ad libitum. Thioacetamide (TAA, manufactured by FUJIFILM Wako Pure Chemical Corporation) was dissolved in physiological saline at 0.9% w/v. Eight-week-old mice were randomly assigned to three groups and continuously treated for 9 weeks according to the following scheme. At Week 9, all mice were euthanized 1 hour after administration of physiological saline or IMG.
Normal control group (N=6): Physiological saline was intraperitoneally administered to mice three times per week. Eight hours after each administration, a vehicle was orally administered to the mice.
TAA group (N=6): TAA (50 mg/kg, intraperitoneal) was administered to mice. Eight hours thereafter, physiological saline was orally administered to the mice. This treatment was performed three times per week for a total of 9 weeks.
TAA+IMG group (N=6): During the first week, physiological saline was orally administered to mice. Thereafter, imeglimin (IMG) at 200 mg/kg was orally administered three times per week for 8 weeks. The administration of IMG was performed 8 hours after intraperitoneal administration of TAA (50 mg/kg).
(§3) For immunohistochemical analysis, liver samples were fixed in 4% paraformaldehyde, embedded in paraffin, and then sectioned. The sections were stained with HE or PSR. In addition, the paraffin-embedded sections were subjected to immunostaining using an α-SMA monoclonal antibody (1:500, catalog No. A5228, manufactured by Sigma-Aldrich) and an F4/80 monoclonal antibody (1:200, catalog No. MCA497GA, manufactured by AbD Serotec). The cell specimens were observed using a microscope (BZ-X700 series, manufactured by Keyence) or a confocal laser microscope (FV1000, manufactured by Olympus Corporation). The number of F4/80-positive cells was counted in four high-power fields per section. The α-SMA-positive area and the PSR-positive area were quantified using the image analysis software Fiji-ImageJ (1.54f).
A histological score was determined by a blinded investigator using the NAFLD histological scoring system of the Nonalcoholic Steatohepatitis Clinical Research Network. The total NAFLD activity score (NAS) was calculated from the total of the individual scores for steatosis ([…]), lobular inflammation (F4/80), and hepatocyte ballooning. The range of each parameter was 0 to 2 (ballooning) or 3 (the other two scores), where 0 indicates normal and 2 or 3 indicates severe. Staging of fibrosis was based on the NASH fibrosis stages, and a fibrosis stage ranging from 0 to 4 was determined according to Reference H (David E. Kleiner et al., 2005, Design and validation of a histological scoring system for nonalcoholic fatty liver disease, Hepatology, 41, 1313-1321).
All results are expressed as the mean±standard error of the mean (S.E.M.). Statistical analyses were performed using GraphPad Prism 7.0 (GraphPad Software). Significance upon comparison between two groups was evaluated by an unpaired two-tailed Student's t-test. […]. Statistical significance among three or more groups was determined by two-way analysis of variance (ANOVA) with Tukey's or Dunnett's post hoc test. Coloc2 was used to perform image analysis, automatic thresholding, and pixel intensity correlation for statistical processing. Statistical significance was assumed when the P value was <0.05.

[3] = test system: α-SMA-positive cells (stellate cells) in mouse liver; experiment: TAA-induced activation of HSCs in mice: α-SMA immunostaining of liver sections; assay type: in vivo
From the text: as §3
In accordance with Example 15, immunostaining of α-SMA in liver sections and observation by fluorescence microscopy were performed for the normal control group, the TAA group, and the TAA+IMG group, and for a TAA+Clo group, which was treated in the same manner as the TAA+IMG group except that clodronate, instead of imeglimin, was administered at 30 mg/kg by blending it in the drinking water from 1 week after the start of TAA administration.

keratinocytes = experiment: Imiquimod-induced ATP secretion in keratinocytes; assay type: cell-based, human; conditions: imiquimod 1 μg/ml or 0.5 μg/ml, 15 minutes, N=8 (FIG. 32)
Experimental: In the same manner as in Example 1, keratinocytes were cultured at 2.5×10^4 cells/well in a 24-well plate at 37° C. in 5% CO2 for 4 days. The medium was replaced with HBSS (manufactured by Gibco) supplemented with 1 μM or 10 μM imeglimin, and incubation was performed at 37° C. in 5% CO2 for 18 hours. Thereafter, imiquimod was added thereto at 1 μg/ml or 0.5 μg/ml, and incubation was performed for 15 minutes, followed by collection of 200 μl of the supernatant. The supernatant was immediately treated on a heat block at 95° C. for 10 minutes, and ATP in the supernatant was quantified using a ATP Assay Kit—Luminescence (manufactured by Dojindo) (N=8).

mouse auricle [4] = experiment: Imiquimod-induced psoriasis model, oral imeglimin (Example 18); assay type: in vivo; conditions: 62.5 mg of 5% imiquimod cream daily, Days 1 to 7 (disease inducer)
Experimental: Experimental psoriatic symptoms were induced in a mouse auricle by imiquimod. Six-week-old male C57BL/6 mice (N=5) were acclimated for one week. On Days 1 to 7, 62.5 mg of 5% imiquimod cream (Beselna Cream 5%) (3.125 mg in terms of the active ingredient, manufactured by Mochida Pharmaceutical Co. Ltd.) was applied to the right auricle of the mice for 7 consecutive days (IMQ group). Once daily after the imiquimod application, the imeglimin administration group (IMQ+IMG group) received oral administration, at 40 mg/kg, of 500-mg Twymeeg (trademark) tablets (manufactured by Sumitomo Pharma Co. Ltd.) dissolved in physiological saline. The control group received an equal volume of physiological saline. On Day 8, the mice were euthanized by cervical dislocation, and auricle thickness was measured using a dial thickness gauge (manufactured by Adachi Sogyo Co., Ltd.).
Each excised mouse auricle was fixed in 4% paraformaldehyde at 4° C. overnight. After ethanol substitution, the auricle was embedded in paraffin, sectioned using a rotary microtome Leica RM2165 (thickness, […]), and subjected to HE staining or immunohistochemical staining. For the immunohistochemical staining, the sections were deparaffinized, washed in xylene, and rehydrated through graded alcohols. The sections were incubated in DAKO at 95° C. for 30 minutes. The sections were blocked at room temperature for 60 minutes and then incubated at room temperature for 2 hours to allow reaction with a TGM1 anti-rabbit polyclonal antibody (catalog number 12912-3-AP, manufactured by Proteintech). The sample was washed and then allowed to react with a secondary antibody (Alexa 544-conjugated secondary antibody (goat anti-rabbit IgG) (manufactured by Molecular Probes)) at room temperature for 60 minutes. After allowing reaction with DAPI at room temperature for 10 minutes, the sections were mounted with Fluoromount and imaged using a fluorescence microscope (BZ-X710, manufactured by Keyence).

mouse auricle [5] = experiment: Imiquimod-induced psoriasis relapse model (Example 20); assay type: in vivo; conditions: 5% imiquimod cream resumed on Day 23, vs first induction
Experimental: To the left auricle of each mouse, 62.5 mg of 5% imiquimod cream (Beselna Cream 5%) was applied once daily a total of seven times (Days 1 to 7) in accordance with Example 19 to induce imiquimod-induced psoriasis. Thereafter, the imiquimod treatment was interrupted, and imeglimin (40 mg/kg) was orally administered on alternate days for 2 weeks (Day 8 to 22) (IMG). Mice without administration of imeglimin were designated IMQ. On Day 23, the imiquimod treatment was resumed, and 62.5 mg of 5% imiquimod cream (Beselna Cream 5%) was applied once daily a total of […]. In parallel, imeglimin (40 mg/kg) was orally administered daily to IMG.

[6] = test system: catecholamine transport of chromaffin granule membranes; experiment: Catecholamine (dopamine) transport in chromaffin granule membranes; assay type: biochemical, cattle; conditions: role: inhibitor; 1 μM reserpine
Experimental: as §1
A catecholamine transport inhibition experiment was carried out in the same manner as the ATP transport experiment except that the experiment used a measurement liquid containing 20 mM MOPS-tris (pH 7.0), 0.1 M sucrose, 0.1 M potassium chloride, 5 mM magnesium acetate, and about 5 μg of chromaffin granule membranes. To 0.5 ml of the measurement liquid, 2 mM ATP was added, and the resulting mixture was incubated at 30° C. for about 5 minutes, followed by addition of 3[H]-dopamine thereto to a final concentration of 10 μM. After further incubation at 30° C. for 15 minutes, 0.2 ml of the reaction liquid was subjected to suction filtration through a Millipore MCE membrane filter with a pore size of 0.45 μm, and the radioactivity on the filter was measured (N=3). The substrate, 3[H]-dopamine, was prepared by mixing 3,4-[RING-2,5,6-^3H]dihydroxyphenylethylamine (dopamine) (30 Ci/mmol) (manufactured by New England Nuclear) with dopamine hydrochloride (manufactured by LKT Laboratories) such that a final concentration of […] was achieved during the use.
as §2

SMILES: Nc1ncnc2c1ncn2[C@@H]1O[C@H](COP(=O)(O)OP(=O)(O)OP(=O)(O)O)[C@@H](O)[C@H]1O [ATP, adenosine triphosphate]
- quenching of oxonol-V fluorescence (V-ATPase [1]): 40%
- quenching of acridine orange fluorescence (V-ATPase [2]): 62%

SMILES: CC(=N)S [TAA, Thioacetamide]
- reaction of F4/80-positive macrophages (mouse liver; 9 weeks (disease inducer)): markedly increased
- α-SMA-positive reaction (mouse liver; 9 weeks (disease inducer)): markedly increased
- HE-stained liver tissue (mouse liver; 9 weeks, vs normal control): destruction of the lobular structure, hepatocyte ballooning, and inflammatory cell infiltration
- fibrosis score (mouse liver; 9 weeks, vs normal control (FIG. 28)): markedly increased
- α-SMA-positive reaction throughout the mouse liver ([3]; TAA 50 mg/kg i.p. (FIG. 29)): increased markedly
- α-SMA-positive area fraction ([3]; TAA group (disease inducer, 50 mg/kg i.p.), four measurements, normal control 0.14±0.01): 2.79±0.33

- auricle thickening (mouse auricle [4]): auricle thickening induced
SMILES: CC(C)Cn1cnc2c(N)nc3ccccc3c21 [imiquimod]
- ATP secretion from the keratinocytes (keratinocytes): markedly promoted
- psoriatic symptoms in the epidermis (mouse auricle [4]): caused psoriatic symptoms in the epidermis, leading to partial desquamation
- psoriatic symptoms on resumed treatment (mouse auricle [5]): induced more rapidly and more strongly than at the first induction

SMILES: COC(=O)[C@H]1[C@H]2C[C@@H]3c4[nH]c5cc(OC)ccc5c4CCN3C[C@H]2C[C@@H](OC(=O)c2cc(OC)c(OC)c(OC)c2)[C@@H]1OC [reserpine]
- ATP-dependent dopamine transport [6]: almost completely blocked
